Where “and” joins values, the source holds several entries; their conditions need not be identical. Identical values can stand only once.
Key:
CB2R-S285^7.39A = CB2R-S285^7.39A (Homo sapiens, UniProt P34972, S285A); assay: [35S]GTPγS assay, CB2R S285A mutant; type: biochemical; conditions: S285A mutant
CB2R-I110^3.29L = CB2R-I110^3.29L (Homo sapiens, UniProt P34972, I110L); assay: [3H]CP55,940 displacement assay, CB2R I110L mutant; type: binding; conditions: for percentage specific [3H]CP55,940 binding: I1103.29L, individual replicates
CB2R-I110^3.29L, sequence (P34972 whole entry I110L): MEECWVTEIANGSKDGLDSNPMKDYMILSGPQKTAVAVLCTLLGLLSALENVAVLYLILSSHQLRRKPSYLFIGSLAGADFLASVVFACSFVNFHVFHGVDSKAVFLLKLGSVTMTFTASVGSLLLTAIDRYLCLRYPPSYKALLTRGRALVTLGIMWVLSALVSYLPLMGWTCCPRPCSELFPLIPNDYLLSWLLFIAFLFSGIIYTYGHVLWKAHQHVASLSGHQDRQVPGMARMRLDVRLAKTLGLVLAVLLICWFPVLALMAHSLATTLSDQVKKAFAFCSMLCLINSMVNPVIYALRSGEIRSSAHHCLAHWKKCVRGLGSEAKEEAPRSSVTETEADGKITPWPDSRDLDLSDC

CB1R activity = assay: Mouse tetrad assay for CB1R activity; conditions: in vivo, po, 25 mg/kg
Experimental: To determine whether LEI-102 maintained its selectivity for CB2R over CB1R in vivo, LEI-102 was tested in the mouse tetrad assay for CB1R activity. In this assay, four consecutive behavioral tests, related to anti-nociception, hypothermia, catalepsy, and spontaneous activity, were performed 120 min after administration of the agonist. […] There were no effects on nociceptive behavior assessed in tail withdrawal test nor on body temperature (Fig. 6 upper row). No effect was found on locomotor behavior (Fig. 6 lower row) in case of distance traveled, time spent mobile, or running speed of mice.
(§1) The well-established model of cisplatin-induced nephropathy was used[63]. Mice (CB2R^−/− and CB2R^+/+) were sacrificed 72 h after a single injection of cisplatin (cis-diamine platinum (II) dichloride (Sigma#P4394) 25 mg/kg i.p.; freshly dissolved in physiological saline) by cervical dislocation under deep anesthesia with 5% isoflurane, for collection of blood and tissue samples. LEI-102 was given i.p. or by oral gavage (p.o.) at 0.3, 3.0, and 10 mg/kg every day, starting 1.5 h before the cisplatin exposure. The drug was dissolved in a vehicle of DMSO:Tween 80:saline, 1:1:18. After administration of LEI‐102, mice were killed by cervical dislocation under deep anesthesia with 5% isoflurane, for collection of blood and tissue samples at the time described in the figure. The tetrad assay in mice has previously been described in detail.

hCB1R WT = hCB1R WT (Homo sapiens, UniProt P21554); assay: [3H]CP55,940 displacement assay, CB1R WT; type: binding
hCB1R WT, sequence (P21554 whole entry): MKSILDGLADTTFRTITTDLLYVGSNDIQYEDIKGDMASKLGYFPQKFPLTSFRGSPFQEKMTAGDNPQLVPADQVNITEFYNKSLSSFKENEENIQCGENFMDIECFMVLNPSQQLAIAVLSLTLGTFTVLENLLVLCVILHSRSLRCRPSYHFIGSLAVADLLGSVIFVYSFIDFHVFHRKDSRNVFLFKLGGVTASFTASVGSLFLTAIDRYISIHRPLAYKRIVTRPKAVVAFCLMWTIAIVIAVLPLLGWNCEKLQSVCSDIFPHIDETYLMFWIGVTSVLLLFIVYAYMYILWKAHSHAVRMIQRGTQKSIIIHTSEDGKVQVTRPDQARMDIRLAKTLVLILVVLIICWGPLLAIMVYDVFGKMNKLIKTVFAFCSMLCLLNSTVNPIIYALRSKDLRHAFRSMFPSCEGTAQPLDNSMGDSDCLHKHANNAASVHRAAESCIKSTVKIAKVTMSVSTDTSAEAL

CB1R-L359^6.51V = CB1R-L359^6.51V (Homo sapiens, UniProt P21554, L359V); assay: [35S]GTPγS assay, CB1R L359V mutant; type: biochemical
CB1R-L359^6.51V, sequence (P21554 whole entry L359V): as the sequence (P21554 whole entry) above, with L359V counted along it

CB1R-H270^ECL2L = CB1R-H270^ECL2L (Homo sapiens, UniProt P21554, H270L); assay: [35S]GTPγS assay, CB1R H270L mutant; type: biochemical
CB1R-H270^ECL2L, sequence (P21554 whole entry H270L): as the sequence (P21554 whole entry) above, with H270L counted along it

[1] = tested on: cisplatin-induced nephropathy, CB2R knockout mice (CB2R−/−); assay: Cisplatin-induced nephropathy in CB2R knockout mice; type: in vivo
Experimental: Ten to twelve-week-old male/female C57BL/6J mice were obtained from The Jackson Laboratory (Bar Harbor, ME, USA). CB2R knockout mice (CB2R^−/−) and their wild-type littermates (CB2R^+/+) were developed as described previously and had been backcrossed to a C57BL/6J background. All animals were kept in a temperature-controlled environment (20–22 °C) with a 12 h light–dark cycle and were always allowed free access to food and water. All animal experiments reported in this manuscript complied with the National Institutes of Health “Guide for the Care and Use of Laboratory Animals” (NIH publication 86–23 revised 1985) and were approved by the Institutional Animal Care and Use Committee of the National Institute on Alcohol Abuse and Alcoholism (Bethesda, MD).
as §1
Markers of kidney dysfunction (BUN and CREA), histopathology (PAS staining), immunostaining or ELISA for 3-nitrotyrosine (3-NT; Cell Biolabs #STA-305) and 4-hydroxynonenal (4-HNE; Cell Biolabs#STA-838), and real-time PCR (Primers from Qiagen, SYBER Green Vita Scientific#MEIF01301, High-Capacity cDNA Reverse Transcription Kit, Thermo Fisher Scientific#4368813) for inflammatory cytokines were performed as previously described. Tubular damage scores were determined based on the percentage of tubules showing epithelial necrosis where 0= normal; 1, <10%; 2, 10–25%; 3, 26–75%; 4, >75%. Tubular necrosis was defined as the loss of the proximal tubular brush border, blebbing of apical membranes, tubular epithelial cell detachment from the basement membrane, or intraluminal aggregation of cells and proteins. The morphometric examination was performed in a blinded manner. Ten fields were scored from each mouse kidneys at 200× magnification, and average scores were determined for each mouse. For final quantification graph, average tubular damage scores of six mice/group were plotted.

CB2R-L185^ECL2H = CB2R-L185^ECL2H (Homo sapiens, UniProt P34972, L185H); assay: [3H]CP55,940 displacement assay, CB2R L185H mutant; type: binding; conditions: read-out: pKi (converted)
CB2R-L185^ECL2H, sequence (P34972 whole entry L185H): as the sequence (P34972 whole entry I110L) above, with L110I, L185H counted along it

CB2R-V261^6.51L = CB2R-V261^6.51L (Homo sapiens, UniProt P34972, V261L); assay: [35S]GTPγS assay, CB2R V261L mutant; type: biochemical; conditions: for [35S]GTPγS binding: V2616.51L, individual replicates
CB2R-V261^6.51L, sequence (P34972 whole entry V261L): as the sequence (P34972 whole entry I110L) above, with L110I, V261L counted along it

CB1R I267ECL2L = CB1R I267ECL2L (Homo sapiens, UniProt P21554, I267L); assay: [3H]CP55,940 displacement assay, CB1R I267L mutant; type: binding
CB1R I267ECL2L, sequence (P21554 whole entry I267L): as the sequence (P21554 whole entry) above, with I267L counted along it

CB2R-I110^3.29A = CB2R-I110^3.29A (Homo sapiens, UniProt P34972, I110A); assay: [35S]GTPγS assay, CB2R I110A mutant; type: biochemical; conditions: for [35S]GTPγS binding: I1103.29A, individual replicates
CB2R-I110^3.29A, sequence (P34972 whole entry I110A): as the sequence (P34972 whole entry I110L) above, with L110A counted along it

CB2R-F117^3.36A = CB2R-F117^3.36A (Homo sapiens, UniProt P34972, F117A); assay: [35S]GTPγS assay, CB2R F117A mutant; type: biochemical
CB2R-F117^3.36A, sequence (P34972 whole entry F117A): as the sequence (P34972 whole entry I110L) above, with L110I, F117A counted along it

[2] = Cisplatin + LEI-102 10 mg/kg, KO, mean, n = 6
[3] = V261L mutant, <5 when curve fit not finished
[4] = I110A mutant, HEK293T membranes

CB2R-S285^7.39A, sequence (P34972 whole entry S285A): as the sequence (P34972 whole entry I110L) above, with L110I, S285A counted along it

CC(C)CN1C(=O)CN(Cc2ccc(-c3ccc(F)c(CNC4CCOCC4)n3)cc2)C1=O [LEI-102, 1-(4-(5-fluoro-6-(((tetrahydro-2H-pyran-4-yl)amino)methyl)pyridin-2-yl)benzyl)-3-isobutylimidazolidine-2,4-dione]
EC50 (CB2R-S285^7.39A; HEK293T membranes): 501 nM | pEC50 (CB2R-S285^7.39A; HEK293T membranes): no significant effect | Emax (%) (CB2R-S285^7.39A; at 10 µM compared to WT): 45 ± 8% | pKi (CB2R-I110^3.29L; CB2R I110L mutant, [3H]CP55,940): remained similar | percentage specific [3H]CP55,940 binding (CB2R-I110^3.29L; log [ligand] (M) -5): 3.91% and 2.37% and 4.51% | percentage specific [3H]CP55,940 binding (CB2R-I110^3.29L; log [ligand] (M) -6): 9.98% and 9.21% and 3.23% | percentage specific [3H]CP55,940 binding (CB2R-I110^3.29L; log [ligand] (M) -7): 39.17% and 30.03% and 31.46% | percentage specific [3H]CP55,940 binding (CB2R-I110^3.29L; log [ligand] (M) -8): 86.59% and 79.23% and 85.93% | percentage specific [3H]CP55,940 binding (CB2R-I110^3.29L; log [ligand] (M) -9): 105.91% and 105.22% and 104.46% | percentage specific [3H]CP55,940 binding (CB2R-I110^3.29L; log [ligand] (M) -10): 128.52% and 108.89% and 100.89% | Ki (CB2R-I110^3.29L; read-out: pKi (converted)): 12.6 nM | catalepsy (CB1R activity): Nor was catalepsy observed | effects in the tetrad assay as compared with vehicle (CB1R activity): did not produce any effects | Tail withdrawal (%MPE) (CB1R activity; 120 min): 30.0 %MPE | percentage specific [3H]CP55,940 binding (hCB1R WT; CB1R - WT, 10 µM ligand, replicates 1-3): 72.08 percentage and 95.14 percentage and 82.84 percentage | Displacement (%) of [3H]CP55,940 (hCB1R WT; CB1R WT, 10 µM compound): 17 ± 7% | binding to CB1R (hCB1R WT; [3H]CP55,940 displacement): did not bind | selectivity (CB2R over CB1R) (hCB1R WT; binding, CB2R vs CB1R): at least 1000 fold | Agonist-mediated activation (CB1R-L359^6.51V; CB1R L359V, 10 µM agonist): 1.1 ± 0.1 fold over its basal | G protein activation, fold over its basal (CB1R-L359^6.51V; CB1R L3596.51V, individual replicates): 1.125 fold over its basal and 1.294 fold over its basal and 0.998 fold over its basal | G protein activation, fold over its basal (CB1R-H270^ECL2L; CB1R H270ECL2L, individual replicates): 1.101 fold over its basal and 1.221 fold over its basal and 1.256 fold over its basal | Agonist-mediated activation (CB1R-H270^ECL2L; CB1R H270L, 10 µM agonist): 1.2 ± 0.0 fold over its basal | protective effects against cisplatin-induced renal dysfunction, tubular damage, histopathological injury and oxidative-nitrative stress ([1]; CB2R knockout mice): abolished | BUN [1, 2]: 312 | CREA [1, 2]: 3.9 | Tubular damage score [1, 2]: 2.88 | Ki (CB2R-L185^ECL2H): 50.1 nM | EC50 (CB2R-V261^6.51L; [3]): 398 nM | pEC50 (CB2R-V261^6.51L; [3]): no significant effect | Emax (%) (CB2R-V261^6.51L; V261L mutant, at 10 µM compared to WT): 8 ± 4% | [35S]GTPγS binding (CB2R-V261^6.51L; log [ligand] (M) -5): 10.29 percentage of WT and 13.28 percentage of WT and -0.20 percentage of WT | [35S]GTPγS binding (CB2R-V261^6.51L; log [ligand] (M) -6): 38.11 percentage of WT and 3.14 percentage of WT and 6.06 percentage of WT | [35S]GTPγS binding (CB2R-V261^6.51L; log [ligand] (M) -7): 1.50 percentage of WT and -10.33 percentage of WT and -12.90 percentage of WT | [35S]GTPγS binding (CB2R-V261^6.51L; log [ligand] (M) -8): -5.39 percentage of WT and -14.91 percentage of WT and -5.93 percentage of WT | [35S]GTPγS binding (CB2R-V261^6.51L; log [ligand] (M) -9): -6.94 percentage of WT and -6.08 percentage of WT and -10.10 percentage of WT | [35S]GTPγS binding (CB2R-V261^6.51L; log [ligand] (M) -10): 6.99 percentage of WT and -5.10 percentage of WT and -20.01 percentage of WT | percentage specific [3H]CP55,940 binding (CB1R I267ECL2L; CB1R I267ECL2L, 10 µM ligand, replicates 1-3): 70.66 percentage and 79.50 percentage and 75.81 percentage | Displacement (%) of [3H]CP55,940 (CB1R I267ECL2L; CB1R I267L, 10 µM compound): 25 ± 3% | EC50 (CB2R-I110^3.29A; [4]): 100 nM | pEC50 (CB2R-I110^3.29A; [4]): no significant effect | Emax (%) (CB2R-I110^3.29A; I110A mutant, at 10 µM compared to WT): 36 ± 13% | [35S]GTPγS binding (CB2R-I110^3.29A; log [ligand] (M) -5): 61.30 percentage of WT and 18.20 percentage of WT and 29.13 percentage of WT | [35S]GTPγS binding (CB2R-I110^3.29A; log [ligand] (M) -6): 35.42 percentage of WT and 6.50 percentage of WT and 8.34 percentage of WT | [35S]GTPγS binding (CB2R-I110^3.29A; log [ligand] (M) -7): 35.70 percentage of WT and -4.40 percentage of WT and 26.26 percentage of WT | [35S]GTPγS binding (CB2R-I110^3.29A; log [ligand] (M) -8): 11.80 percentage of WT and -18.30 percentage of WT and 10.49 percentage of WT | [35S]GTPγS binding (CB2R-I110^3.29A; log [ligand] (M) -9): -6.30 percentage of WT and 0.70 percentage of WT and 0.20 percentage of WT | [35S]GTPγS binding (CB2R-I110^3.29A; log [ligand] (M) -10): 15.50 percentage of WT and -9.30 percentage of WT and 14.53 percentage of WT | Emax (%) (CB2R-F117^3.36A; F117A mutant, at 10 µM compared to WT): 11 ± 11% | [35S]GTPγS binding (CB2R-F117^3.36A; F1173.36A, log [ligand] (M) -5, individual replicates): -10.74 percentage of WT and 22.02 percentage of WT and 22.63 percentage of WT
